Results taken from patent publication US10351552B2, “Bicyclic antiparasitic compounds” (MediSynergies, LLC, priority 2017, dated 2019).

System: T. brucei brucei clone 427-221a (bloodstream forms)
Assay: T. brucei brucei growth inhibition assay
Type: cell-based
Details: Trypanosoma brucei, 40 hours at 37° C., CellTiter-Glo ATP-bioluminescence
Description: The growth inhibition assay for T. brucei brucei was conducted as described previously by Z. B. Mackey, et al (Kenny K. H. Ang, Joseline Ratnam, Jiri Gut, Jennifer Legac, Elizabeth Hansell, Zachary B. Mackey, Katarzyna M. Skrzypczynska, Anjan Debnath, Juan C. Engel, Philip J. Rosenthal, James H. McKerrow, Michelle R. Arkin, Adam R. Renslo (2011) “Mining a Cathepsin Inhibitor Library for New Antiparasitic Drug Leads”, PLoS Neglected Tropical Diseases, 5(5):e1023). Bloodstream forms of the monomorphic T. brucei brucei clone 427-221a were grown in complete HMI-9 medium containing 10% FBS, 10% Serum Plus medium (Sigma Inc., St. Louis, Mo., USA), 50 U/mL penicillin and […] (Invitrogen) at 37° C. under a humidified atmosphere and 5% CO2. Inhibitor stocks were prepared in 100% DMSO and screened at […] for percent inhibition values or serially diluted from […] in 10% DMSO for IC50 determinations. […] of diluted parasites ([…]) in sterile Greiner 96-well flat white opaque culture plates such that the final DMSO concentration was 0.5%. The 0% inhibition control wells contained 0.5% DMSO while 100% inhibition control wells contained 50 mM thimerosal (Sigma). After compound addition, plates were incubated for 40 hours at 37° C. At the end of the incubation period, […] of CellTiter-Glo™ reagent (Promega Inc., Madison, Wis., USA) was added to each well and plates were placed on an orbital shaker at room temperature for 2 min to induce lysis. After an additional 10 min of incubation without shaking to stabilize the signal, the ATP-bioluminescence of each well was determined using an Analyst HT plate reader (Molecular Devices, Sunnyvale, Calif., USA). Raw values were converted to log 10 and percentage inhibition calculated relative to the controls. IC50 curve fittings were performed with Prism 4 software as above. Pentamidine was used as a comparator in the assay.

Structure (SMILES): CN(C)CCCC1(c2ccc(F)cc2)OCc2cc(-c3cc4ccccc4s3)ccc21 (stereo not shown) [Example 4]
- IC50: 510 nM

Structure (SMILES): CN(C)CCCC1(c2ccc(F)cc2)OCc2cc(-c3cnc4ccccc4c3)ccc21 (stereo not shown) [Example 6, 3-[1-(4-fluorophenyl)]-[5-(quinolin-3-yl)-1,3-dihydro-2-benzofuran-1-yl]-N,N-dimethylpropan-1-amine]
- IC50: 3000 nM

Structure (SMILES): CN(C)CCCC1(c2ccc(F)cc2)OCc2cc(-c3ccc4scnc4c3)ccc21 (stereo not shown) [Example 3, 3-[1-(4-fluorophenyl)-5-(1,3-benzothiazol-5-yl)-1,3-dihydro-2-benzofuran-1-yl]-N,N-dimethylpropan-1-amine]
- IC50: 1200 nM

Structure (SMILES): CN(C)CCCC1(c2ccc(F)cc2)OCc2cc(-c3cccc4[nH]ccc34)ccc21 (stereo not shown) [Example 1, 3-[1-(4-fluorophenyl)-5-(1H-indol-4-yl)-1,3-dihydro-2-benzofuran-1-yl]-N,N-dimethylpropan-1-amine]
- IC50: 1500 nM

Structure (SMILES): Cc1ccc2oc(-c3ccc4c(c3)COC4(CCCN(C)C)c3ccc(F)cc3)nc2c1 (stereo not shown) [Example 8, 3-[1-(4-fluorophenyl)-5-(5-methyl-1,3-benzoxazol-2-yl)-1,3-dihydro-2-benzofuran-1-yl]-N,N-dimethylpropan-1-amine]
- IC50: 110 nM

Structure (SMILES): CN(C)CCCC1(c2ccc(F)cc2)OCc2cc(-c3ccc4ocnc4c3)ccc21 (stereo not shown) [Example 2, 3-[1-(4-flurophenyl)-5-(1,3-benzoxazol-5-yl)-1,3-dihydro-2-benzofuran-1-yl]-N,N-dimethylpropan-1-amine]
- IC50: 410 nM

Structure (SMILES): CN(C)CCCC1(c2ccc(F)cc2)OCc2cc(-c3cncc4ccccc34)ccc21 (stereo not shown) [Example 7, 3-[1-(4-fluorophenyl)]-[5-(isoquinolin-4-yl)-1,3-dihydro-2-benzofuran-1-yl]-N,N-dimethylpropan-1-amine]
- IC50: 1000 nM
